Assay results from the supplement of paper PMC10307832.

Key:
Experiment in all cases: relative viability (nuclei count vs DMSO), 5 days (fraction); higher = more cells survive
Axitinib + AZD7762 = compound: CNC(=O)c1ccccc1Sc1ccc2c(/C=C/c3ccccn3)n[nH]c2c1 [Axitinib] + NC(=O)Nc1cc(-c2cccc(F)c2)sc1C(=O)N[C@H]1CCCNC1 [AZD7762] (partner 0.2 µM)
In short: (§1)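 A single step with final 0.05% Triton X-100, 1% formaldehyde and 1 ug/ml Hoechst fixed the cells and stained nuclei 5 days after treatment. Lung cancer cell lines in 1536-well plates had been treated by pin tool the day after seeding with one drug alone or a fixed anchor-drug dose plus five library-drug doses (not always all listed) in √10 steps, and nuclei were counted on 4× images. Relative viability is the ratio of nuclei in treated wells to nuclei in vehicle wells, taken as the median of duplicate plates.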

Bemcentinib + Decitabine = compound: Nc1nc(Nc2ccc3c(c2)CC[C@@H](N2CCCC2)CC3)nn1-c1cc2c(nn1)-c1ccccc1CCC2 [Bemcentinib] + Nc1ncn([C@H]2C[C@H](O)[C@@H](CO)O2)c(=O)n1 [Decitabine] (partner 2 µM)
In short: as §1

Axitinib + Dasatinib = compound: CNC(=O)c1ccccc1Sc1ccc2c(/C=C/c3ccccn3)n[nH]c2c1 [Axitinib] + Cc1nc(Nc2ncc(C(=O)Nc3c(C)cccc3Cl)s2)cc(N2CCN(CCO)CC2)n1 [Dasatinib] (partner 0.075 µM)
In short: as §1

Axitinib + Phenformin = compound: CNC(=O)c1ccccc1Sc1ccc2c(/C=C/c3ccccn3)n[nH]c2c1 [Axitinib] + N=C(N)NC(=N)NCCc1ccccc1 [Phenformin] (partner 250 µM)
In short: as §1

| Cell Line | relative viability (Axitinib + AZD7762; first compound 0.005 µM) | relative viability (Axitinib + AZD7762; first compound 0.01581 µM) | relative viability (Axitinib + AZD7762; first compound 0.05 µM) | relative viability (Axitinib + AZD7762; first compound 0.1581 µM) | relative viability (Axitinib + AZD7762; first compound 0.5 µM) | relative viability (Bemcentinib + Decitabine; first compound 0.04 µM) | relative viability (Bemcentinib + Decitabine; first compound 0.1265 µM) | relative viability (Bemcentinib + Decitabine; first compound 0.4 µM) | relative viability (Bemcentinib + Decitabine; first compound 1.265 µM) | relative viability (Bemcentinib + Decitabine; first compound 4 µM) | relative viability (Axitinib + Dasatinib; first compound 0.005 µM) | relative viability (Axitinib + Dasatinib; first compound 0.01581 µM) | relative viability (Axitinib + Dasatinib; first compound 0.05 µM) | relative viability (Axitinib + Dasatinib; first compound 0.1581 µM) | relative viability (Axitinib + Dasatinib; first compound 0.5 µM) | relative viability (Axitinib + Phenformin; first compound 0.005 µM) | relative viability (Axitinib + Phenformin; first compound 0.01581 µM) | relative viability (Axitinib + Phenformin; first compound 0.05 µM) | relative viability (Axitinib + Phenformin; first compound 0.1581 µM) | relative viability (Axitinib + Phenformin; first compound 0.5 µM) |
| --- | --- | --- | --- | --- | --- | --- | --- | --- | --- | --- | --- | --- | --- | --- | --- | --- | --- | --- | --- | --- |
| NCI-H1993 | 0.819 | 0.933 | 0.746 | 0.883 | 0.818 | 0.541 | 0.49 | 0.627 | 0.577 | 0.68 | 0.609 | 0.708 | 0.735 | 0.712 | 0.52 | 0.494 | 0.514 | 0.496 | 0.592 | 0.529 |
| NCI-H2085 | 1.04 | 0.908 | 1.03 | 0.983 | 0.952 | 0.539 | 0.583 | 0.498 | 0.551 | 0.554 | 0.237 | 0.22 | 0.216 | 0.247 | 0.199 | 0.767 | 0.728 | 0.742 | 0.751 | 0.733 |
| NCI-H2087 | 1.37 | 1.42 | 1.47 | 1.25 | 1.43 | 0.295 | 0.318 | 0.281 | 0.265 | 0.302 | 0.852 | 1.01 | 0.908 | 0.837 | 0.861 | 0.48 | 0.418 | 0.51 | 0.444 | 0.563 |
| NCI-H2126 | 0.936 | 0.997 | 0.996 | 0.97 | 1.01 | 0.582 | 0.588 | 0.601 | 0.634 | 0.557 | 0.625 | 0.635 | 0.64 | 0.565 | 0.578 | 0.528 | 0.555 | 0.548 | 0.552 | 0.564 |
| NCI-H2170 | 1.13 | 0.958 | 0.948 | 0.792 | 0.87 | 0.457 | 0.48 | 0.463 | 0.519 | 0.479 | 0.606 | 0.579 | 0.64 | 0.582 | 0.522 | 0.435 | 0.412 | 0.468 | 0.415 | 0.5 |
| NCI-H2342 | 0.554 | 0.437 | 0.688 | 0.513 | 0.429 | 0.746 | 0.768 | 0.771 | 0.73 | 0.827 | 0.311 | 0.325 | 0.347 | 0.349 | 0.297 | 0.648 | 0.636 | 0.636 | 0.591 | 0.53 |
| NCI-H2347 | 0.828 | 0.763 | 0.792 | 0.723 | 0.873 | 0.653 | 0.573 | 0.665 | 0.678 | 0.639 | 0.304 | 0.324 | 0.288 | 0.308 | 0.323 | 0.454 | 0.405 | 0.529 | 0.393 | 0.259 |
| NCI-H2405 | 0.73 | 0.808 | 1.01 | 0.684 | 0.856 | 0.74 | 0.717 | 0.799 | 0.821 | 0.761 | 0.203 | 0.202 | 0.232 | 0.214 | 0.199 | 0.386 | 0.435 | 0.468 | 0.399 | 0.357 |
